Results taken from US20260365670A1, “EGFR INHIBITORS AND USES THEREOF” (DIZAL (JIANGSU) PHARMACEUTICAL CO., LTD., priority 2022, published 2026).
Like-named read-outs stand apart in the source and are kept apart here.

Assays:
[1] = target: T1, EGFR[T790M/C797S/L858R] (Homo sapiens, UniProt P00533, C797S/L858R/T790M); experiment: Inhibition of EGFR[T790M/C797S/L858R] biochemical enzymatic activity (HTRF); conditions: EGFR T790M-C797S-L858R, 1 mM ATP, 1 h, room temperature, read-out: IC50 (nM) @T790M- C797S - L858R
T1 construct: purchased Carna Bio
T1 sequence (P00533 25-1210 T790M/C797S/L858R): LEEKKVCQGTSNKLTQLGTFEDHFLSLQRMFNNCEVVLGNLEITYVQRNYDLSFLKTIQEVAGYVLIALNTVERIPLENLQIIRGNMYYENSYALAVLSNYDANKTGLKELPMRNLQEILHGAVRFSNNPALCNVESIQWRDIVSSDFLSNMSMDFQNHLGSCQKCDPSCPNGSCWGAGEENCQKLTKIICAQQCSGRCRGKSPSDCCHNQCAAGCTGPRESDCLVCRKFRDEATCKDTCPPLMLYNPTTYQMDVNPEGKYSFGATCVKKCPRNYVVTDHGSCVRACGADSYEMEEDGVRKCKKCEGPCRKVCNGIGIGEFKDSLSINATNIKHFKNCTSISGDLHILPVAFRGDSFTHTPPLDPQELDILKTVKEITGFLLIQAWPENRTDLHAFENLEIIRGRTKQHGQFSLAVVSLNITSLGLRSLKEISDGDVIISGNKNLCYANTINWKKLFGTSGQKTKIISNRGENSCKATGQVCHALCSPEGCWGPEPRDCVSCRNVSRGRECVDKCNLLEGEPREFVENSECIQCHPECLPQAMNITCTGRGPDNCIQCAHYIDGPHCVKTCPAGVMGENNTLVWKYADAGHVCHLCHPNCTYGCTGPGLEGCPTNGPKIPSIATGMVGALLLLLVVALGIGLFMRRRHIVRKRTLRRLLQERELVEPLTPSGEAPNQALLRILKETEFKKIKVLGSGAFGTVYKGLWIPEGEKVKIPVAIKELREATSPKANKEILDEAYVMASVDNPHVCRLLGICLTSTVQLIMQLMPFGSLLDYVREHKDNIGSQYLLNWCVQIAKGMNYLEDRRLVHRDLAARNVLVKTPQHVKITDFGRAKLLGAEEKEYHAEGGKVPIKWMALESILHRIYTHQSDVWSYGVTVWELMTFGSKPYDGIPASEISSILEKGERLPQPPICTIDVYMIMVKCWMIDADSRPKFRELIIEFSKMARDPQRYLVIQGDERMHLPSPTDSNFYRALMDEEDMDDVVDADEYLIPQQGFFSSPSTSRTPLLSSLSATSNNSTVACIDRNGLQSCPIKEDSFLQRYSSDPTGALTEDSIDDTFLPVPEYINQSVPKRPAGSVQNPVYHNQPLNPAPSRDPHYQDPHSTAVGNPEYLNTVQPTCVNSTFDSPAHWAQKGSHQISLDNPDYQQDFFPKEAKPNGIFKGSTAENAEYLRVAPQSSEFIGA
How it was run: (§1)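 Time-resolved FRET assay of EGFR substrate phosphorylation. Conditions: 1 μM TK substrate-biotin, 1 mM ATP, Mg/Mn buffer, 1 h at RT. IC50 from 4-parameter curve fit.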

[2] = target: T2, EGFR wild type (Homo sapiens, UniProt P00533); experiment: Inhibition of EGFR wild type biochemical enzymatic activity (HTRF); conditions: EGFR WT, 1 mM ATP, 1 h, room temperature, read-out: IC50 (nM) @WT
T2 construct: purchased Carna Bio
How it was run: as §1

[3] = target: T3, EGFR (C797S L858R) (Homo sapiens, UniProt P00533, C797S/L858R); experiment: Inhibition of EGFR (C797S L858R) biochemical enzymatic activity (HTRF); conditions: EGFR L858-C797S, 1 mM ATP, 1 h, room temperature, read-out: IC50 (nM) @L858-C797S
T3 construct: purchased signalchem
T3 sequence (P00533 25-1210 C797S/L858R): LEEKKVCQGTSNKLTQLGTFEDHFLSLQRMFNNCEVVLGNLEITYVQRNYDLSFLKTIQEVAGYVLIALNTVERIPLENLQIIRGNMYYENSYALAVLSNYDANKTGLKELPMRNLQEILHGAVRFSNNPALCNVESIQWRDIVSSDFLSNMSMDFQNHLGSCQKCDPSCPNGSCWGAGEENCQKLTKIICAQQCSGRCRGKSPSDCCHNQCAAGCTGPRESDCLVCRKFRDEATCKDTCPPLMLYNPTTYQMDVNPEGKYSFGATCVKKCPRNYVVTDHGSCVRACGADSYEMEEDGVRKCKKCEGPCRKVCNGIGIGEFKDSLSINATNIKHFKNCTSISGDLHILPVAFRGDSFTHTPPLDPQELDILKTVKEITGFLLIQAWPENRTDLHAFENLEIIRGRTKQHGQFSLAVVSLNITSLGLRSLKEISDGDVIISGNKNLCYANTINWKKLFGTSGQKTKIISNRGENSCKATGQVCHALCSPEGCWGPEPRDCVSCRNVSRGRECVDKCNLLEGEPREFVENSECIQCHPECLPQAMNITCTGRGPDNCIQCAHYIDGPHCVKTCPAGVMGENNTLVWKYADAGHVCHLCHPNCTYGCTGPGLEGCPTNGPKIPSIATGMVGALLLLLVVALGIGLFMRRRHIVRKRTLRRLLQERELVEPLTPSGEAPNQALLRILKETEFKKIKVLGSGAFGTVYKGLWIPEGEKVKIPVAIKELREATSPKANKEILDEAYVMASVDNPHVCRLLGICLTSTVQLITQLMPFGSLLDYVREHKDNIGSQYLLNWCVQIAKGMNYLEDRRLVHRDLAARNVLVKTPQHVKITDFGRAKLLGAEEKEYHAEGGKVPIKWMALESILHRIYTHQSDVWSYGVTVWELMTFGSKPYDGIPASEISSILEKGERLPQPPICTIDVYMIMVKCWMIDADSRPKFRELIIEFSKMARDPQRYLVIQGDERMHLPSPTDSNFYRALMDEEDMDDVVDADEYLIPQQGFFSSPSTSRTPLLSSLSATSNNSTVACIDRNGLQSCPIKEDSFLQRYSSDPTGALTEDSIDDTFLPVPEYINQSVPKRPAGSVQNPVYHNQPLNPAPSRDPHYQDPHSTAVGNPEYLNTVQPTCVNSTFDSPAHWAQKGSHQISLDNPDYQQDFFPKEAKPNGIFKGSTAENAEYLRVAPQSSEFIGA
How it was run: as §1

[4] = target: T4, EGFR (d746-750 C797S) (Homo sapiens, UniProt P00533, C797S/DEL746-750); experiment: Inhibition of EGFR (d746-750 C797S) biochemical enzymatic activity (HTRF); conditions: EGFR Del19-C797S, 1 mM ATP, 1 h, room temperature, read-out: IC50 (nM) @Del19-C797S
T4 construct: purchased signalchem
How it was run: as §1

[5] = system: A-431; experiment: Cell proliferation GI50, A-431 cells (Table 6); type: cell-based
[6] = target: T5, EGFR L858R (Homo sapiens, UniProt P00533, L858R); experiment: Inhibition of EGFR L858R biochemical enzymatic activity (HTRF); conditions: 1 mM ATP, 1 h, room temperature, read-out: IC50 (nM) @L858R
T5 construct: purchased Carna Bio
T5 sequence (P00533 25-1210 L858R): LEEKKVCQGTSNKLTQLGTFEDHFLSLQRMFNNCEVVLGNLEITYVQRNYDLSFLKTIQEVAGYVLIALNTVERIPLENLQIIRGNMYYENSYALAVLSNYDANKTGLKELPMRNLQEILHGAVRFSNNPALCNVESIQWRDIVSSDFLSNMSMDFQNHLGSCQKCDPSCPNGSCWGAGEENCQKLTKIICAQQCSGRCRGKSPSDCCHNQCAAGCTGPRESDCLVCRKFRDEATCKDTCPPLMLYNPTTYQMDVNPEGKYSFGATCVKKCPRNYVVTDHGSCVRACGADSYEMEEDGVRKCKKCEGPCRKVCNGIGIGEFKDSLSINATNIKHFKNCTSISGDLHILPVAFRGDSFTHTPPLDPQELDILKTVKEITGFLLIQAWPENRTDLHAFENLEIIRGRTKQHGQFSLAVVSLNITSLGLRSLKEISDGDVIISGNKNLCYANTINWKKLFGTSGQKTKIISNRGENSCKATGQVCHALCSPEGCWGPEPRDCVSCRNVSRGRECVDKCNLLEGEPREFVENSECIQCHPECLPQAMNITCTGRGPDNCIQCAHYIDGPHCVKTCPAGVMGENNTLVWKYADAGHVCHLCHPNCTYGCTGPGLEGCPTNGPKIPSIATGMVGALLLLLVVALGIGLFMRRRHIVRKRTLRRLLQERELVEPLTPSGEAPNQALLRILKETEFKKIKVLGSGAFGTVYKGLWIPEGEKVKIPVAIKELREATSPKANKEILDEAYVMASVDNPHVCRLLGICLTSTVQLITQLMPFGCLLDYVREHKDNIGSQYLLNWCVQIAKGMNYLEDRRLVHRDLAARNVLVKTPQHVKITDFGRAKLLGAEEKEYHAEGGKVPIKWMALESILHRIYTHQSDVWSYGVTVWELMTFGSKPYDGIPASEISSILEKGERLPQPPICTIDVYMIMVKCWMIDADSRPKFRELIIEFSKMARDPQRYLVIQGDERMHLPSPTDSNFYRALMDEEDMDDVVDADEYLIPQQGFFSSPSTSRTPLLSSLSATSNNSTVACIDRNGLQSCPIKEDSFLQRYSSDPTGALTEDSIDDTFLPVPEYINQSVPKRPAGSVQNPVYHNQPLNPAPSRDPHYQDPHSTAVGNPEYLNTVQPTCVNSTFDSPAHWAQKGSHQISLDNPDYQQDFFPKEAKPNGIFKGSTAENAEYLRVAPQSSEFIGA
How it was run: as §1

[7] = target: T6, EGFR[T790M/C797S/d746-750] (Homo sapiens, UniProt P00533, C797S/DEL746-750/T790M); experiment: Inhibition of EGFR[T790M/C797S/d746-750] biochemical enzymatic activity (HTRF); conditions: EGFR T790M-C797S-Del19, 1 mM ATP, 1 h, room temperature, read-out: IC50 (nM) @T790M - C797S - Del19
T6 construct: purchased Carna Bio
How it was run: as §1

[8] = system: PC-9; experiment: Cell proliferation assay, PC-9 cells (CellTiter-Glo, 72 hours); type: cell-based; conditions: PC9 cells, CellTiter-Glo, read-out: PC9 GI50
How it was run: (§2)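 GI50 is the concentration giving 50% proliferation inhibition. Growth for this was normalised to a baseline viability reading taken when compound was added, and to DMSO wells. PC-9 (500 cells/well) and mutant-EGFR Ba/F3 (5000 cells/well) are treated after overnight seeding in RPMI1640-based medium.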

[9] = target: T7, EGFR Exon19Del/T790M (Homo sapiens, UniProt P00533, DEL746-750/T790M); experiment: Inhibition of EGFR Exon19Del/T790M biochemical enzymatic activity (HTRF); conditions: EGFR Del19-T790M, 1 mM ATP, 1 h, room temperature, read-out: IC50 (nM) @Del19-T790M
T7 construct: purchased Carna Bio
How it was run: as §1

[10] = system: Ba/F3 cells expressing EGFR mutations; experiment: Cell proliferation assay, Ba/F3 cells expressing EGFR mutations (CellTiter-Glo, 72 hours); type: cell-based; conditions: CellTiter-Glo
How it was run: as §2

[11] = target: T8, EGFR L858R/T790M (Homo sapiens, UniProt P00533, L858R/T790M); experiment: Inhibition of EGFR L858R/T790M biochemical enzymatic activity (HTRF); conditions: EGFR L858R-T790M, 1 mM ATP, 1 h, room temperature, read-out: IC50 (nM) @L858R-T790M
T8 construct: purchased Carna Bio
T8 sequence (P00533 25-1210 T790M/L858R): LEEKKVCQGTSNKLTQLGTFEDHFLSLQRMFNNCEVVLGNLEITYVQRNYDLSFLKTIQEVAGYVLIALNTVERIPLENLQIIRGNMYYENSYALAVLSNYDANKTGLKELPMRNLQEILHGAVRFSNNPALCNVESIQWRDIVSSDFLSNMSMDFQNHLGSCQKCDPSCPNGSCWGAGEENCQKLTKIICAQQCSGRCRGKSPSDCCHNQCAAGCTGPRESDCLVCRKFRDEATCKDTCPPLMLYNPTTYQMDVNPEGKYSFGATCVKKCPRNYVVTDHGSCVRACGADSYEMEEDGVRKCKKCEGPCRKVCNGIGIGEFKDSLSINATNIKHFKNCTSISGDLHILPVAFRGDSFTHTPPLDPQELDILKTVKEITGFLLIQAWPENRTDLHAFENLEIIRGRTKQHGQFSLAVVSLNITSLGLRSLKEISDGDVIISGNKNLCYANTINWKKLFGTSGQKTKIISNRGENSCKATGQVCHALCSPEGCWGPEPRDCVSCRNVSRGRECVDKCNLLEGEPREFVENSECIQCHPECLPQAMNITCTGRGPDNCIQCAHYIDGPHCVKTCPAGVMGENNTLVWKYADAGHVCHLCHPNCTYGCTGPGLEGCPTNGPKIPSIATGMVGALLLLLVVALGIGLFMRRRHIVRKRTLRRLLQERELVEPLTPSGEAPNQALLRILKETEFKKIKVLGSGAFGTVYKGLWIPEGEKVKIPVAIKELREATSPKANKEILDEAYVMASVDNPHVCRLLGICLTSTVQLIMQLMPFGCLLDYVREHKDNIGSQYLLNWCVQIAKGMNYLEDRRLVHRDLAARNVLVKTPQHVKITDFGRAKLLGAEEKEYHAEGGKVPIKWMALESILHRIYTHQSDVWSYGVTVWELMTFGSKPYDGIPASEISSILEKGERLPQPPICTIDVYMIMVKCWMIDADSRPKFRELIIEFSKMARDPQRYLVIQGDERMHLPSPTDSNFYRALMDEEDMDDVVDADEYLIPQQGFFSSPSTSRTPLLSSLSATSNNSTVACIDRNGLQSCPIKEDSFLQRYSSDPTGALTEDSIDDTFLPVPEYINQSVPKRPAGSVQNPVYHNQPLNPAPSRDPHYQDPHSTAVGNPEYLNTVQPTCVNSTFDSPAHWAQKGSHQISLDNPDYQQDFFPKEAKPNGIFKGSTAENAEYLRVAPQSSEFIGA
How it was run: as §1

[12] = target: T9, EGFR Exon19Del (Homo sapiens, UniProt P00533, DEL746-750); experiment: Inhibition of EGFR Exon19Del biochemical enzymatic activity (HTRF); conditions: EGFR Del19, 1 mM ATP, 1 h, room temperature, read-out: IC50 @Del19
T9 construct: purchased Carna Bio
How it was run: as §1

[13] = Homo sapiens, A-431, A-431 cells
[14] = Mus musculus, BaF3, 72 h, BaF3 cells, EGFR DEL19-C797S, read-out: DEL19-C797S/BaF3 GI50
[15] = Mus musculus, BaF3, 72 h, BaF3 cells, EGFR DEL19-T790-C797S, read-out: DEL19-T790-C797S/BaF3 GI50
[16] = Mus musculus, BaF3, 72 h, BaF3 cells, EGFR L858R, read-out: L858R/BaF3 GI50
[17] = Mus musculus, BaF3, 72 h, BaF3 cells, EGFR L858R-C797S, read-out: L858R-C797S/BaF3 GI50
[18] = Mus musculus, BaF3, 72 h, BaF3 cells, EGFR L858R-T790-C797S, read-out: L858R-T790-C797S/BaF3 GI50
[19] = Mus musculus, BaF3, 72 h, BaF3 cells, EGFR L858R-T790M, read-out: L858R-T790M/BaF3 GI50
[20] = Mus musculus, BaF3, 72 h, EGFR DEL19-T790M, read-out: DEL19-T790M GI50
[21] = BaF3 cells, EGFR DEL19-C797S, read-out: DEL19-C797S/BaF3 GI50
[22] = BaF3 cells, EGFR DEL19-T790-C797S, read-out: DEL19-T790-C797S/BaF3 GI50
[23] = BaF3 cells, EGFR L858R, read-out: L858R/BaF3 GI50
[24] = BaF3 cells, EGFR L858R-C797S, read-out: L858R-C797S/BaF3 GI50
[25] = BaF3 cells, EGFR L858R-T790-C797S, read-out: L858R-T790-C797S/BaF3 GI50
[26] = BaF3 cells, EGFR L858R-T790M, read-out: L858R-T790M/BaF3 GI50
[27] = EGFR DEL19-T790M, read-out: DEL19-T790M GI50

Row | IC50 [1] [nM] | IC50 [2] [nM] | IC50 [3] [nM] | IC50 [4] [nM] | GI50 [5, 13] [nM] | IC50 [6] [nM] | IC50 [7] [nM] | GI50 ([8]; Homo sapiens, PC-9, 72 h) [nM] | IC50 [9] [nM] | IC50 [11] [nM] | IC50 [12] [nM] | GI50 ([5]; A-431 cells) [nM] | GI50 [8] [nM] | GI50 [10, 21] [nM] | GI50 [10, 22] [nM] | GI50 [10, 23] [nM] | GI50 [10, 24] [nM] | GI50 [10, 25] [nM] | GI50 [10, 26] [nM] | GI50 [10, 27] [nM] | SMILES | also measured
1 | 16 | 1090 | 33 | 2.9 | 405 | 68 | 5.6 | 18 | 5 | 19 | 8 | – | – | – | – | – | – | – | – | – | C[C@@H]1CCCOc2c(cnn2C)-c2cc(cn(C)c2=O)C(=O)Nc2nc3ccc(N4CCOCC4)cc3n2C1 [Example A26, (11R) 5,11,26-trimethyl-16-(morpholin-4-yl)-7-oxa-4,5,13,20,22,26-hexaazapentacyclo[22.3.1.0^{2,6}.0^{13,21}.0^{14,19}]octacosa-1(28),2(6),3,14,16,18,20,24-octaene-23,27-dione] | GI50 [10, 14]: 2.1 nM; GI50 [10, 15]: 16 nM; GI50 [10, 16]: 18 nM; GI50 [10, 17]: 4.6 nM; GI50 [10, 18]: 12 nM; GI50 [10, 19]: 28 nM; GI50 [10, 20]: 18 nM
2 | 1.8 | 148 | 7.4 | 0.97 | – | 16 | 1.7 | – | 1.7 | 2.4 | 0.94 | 538 | 5.6 | 0.71 | 2.2 | 2.7 | 3.5 | 2.8 | 11 | 2.4 | CN(C)C1CN(c2ccc3nc4n(c3c2)C23CCC(CN(CCOc5c(cnn5C)-c5cc(cn(C)c5=O)C(=O)N4)C2)C3)C1 (single isomer, unassigned) [Example A65B] | –
3 | > 5000 | > 5000 | > 5000 | 749 | 4270 | > 5000 | > 5000 | – | > 5000 | > 5000 | 1710 | – | 2100 | 128 | 393 | 540 | 249 | 721 | 977 | 321 | COCCN(C)c1ccc2nc3n(c2c1)C12CCC(CN(CCOc4c(cnn4C)-c4cc(cn(C)c4=O)C(=O)N3)C1)C2 (single isomer, unassigned) [Example A90A] | –
4 | > 5000 | > 5000 | > 5000 | 1660 | 5900 | > 5000 | > 5000 | 1910 | > 5000 | > 5000 | 2180 | – | – | – | – | – | – | – | – | – | Cn1ncc2c1OCCN1CC3CCC(C3)(C1)n1c(nc3ccccc31)NC(=O)c1cc-2c(=O)n(C)c1 (single isomer, unassigned) [Example A61A, 15,21-Dimethyl-23-oxa-2,9,11,15,20,21,26-heptaazaheptacyclo[24.4.1.1^{1,28}.1^{13,17}.0^{2,10}.0^{3,8}.0^{18,22}]tritriaconta-3,5,7,9,13,17(33),18(22),19-octaene-12,16-dione] | GI50 [10, 14]: 521 nM; GI50 [10, 15]: 688 nM; GI50 [10, 16]: 1370 nM; GI50 [10, 17]: 1740 nM; GI50 [10, 18]: 1910 nM; GI50 [10, 19]: 2660 nM; GI50 [10, 20]: 913 nM
5 | 1.6 | 323 | 6 | 1 | 486 | 24 | 1.6 | 12 | 1.6 | 2 | 1.6 | – | – | – | – | – | – | – | – | – | C[C@@H]1CCCOc2c(cnn2C)-c2cc(cn(C)c2=O)C(=O)Nc2nc3ccc(N4CCN(C)CC4)cc3n2C1 [Example A25, (11R)-5,11,26-trimethyl-16-(4-methylpiperazin-1-yl)-7-oxa-4,5,13,20,22,26-hexaazapentacyclo[22.3.1.0^{2,6}.0^{13,21}.0^{14,19}]octacosa-1(28),2(6),3,14,16,18,20,24-octaene-23,27-dione] | GI50 [10, 14]: 1.4 nM; GI50 [10, 15]: 13 nM; GI50 [10, 16]: 2.4 nM; GI50 [10, 17]: 9.3 nM; GI50 [10, 18]: 5.6 nM; GI50 [10, 19]: 16 nM; GI50 [10, 20]: 9.2 nM
6 | 7.3 | 2040 | 63 | 3.8 | – | 144 | 6.3 | – | 6.2 | 7.6 | 9.6 | 2370 | 4.9 | 0.66 | 5.3 | 10 | 9.2 | 9.2 | 4.4 | 6.1 | Cn1ncc2c1OCCN1CC3CCC(C3)(C1)n1c(nc3ccc(N4CCOCC4)cc31)NC(=O)c1cc-2c(=O)n(C)c1 (stereo not drawn) [Example A62] | –
7 | > 5000 | > 5000 | > 5000 | 1920 | – | > 5000 | 2100 | – | > 5000 | > 5000 | 2160 | 6130 | 546 | 215 | 513 | 599 | 443 | 381 | 2100 | 755 | CN(C)C1CCN(c2ccc3nc4n(c3c2)C23CCC(CN(CCOc5c(cnn5C)-c5cc(cn(C)c5=O)C(=O)N4)C2)C3)CC1 (single isomer, unassigned) [Example A64A] | –
8 | 2.1 | 19 | 3.6 | 0.91 | – | 4.7 | 2.1 | – | 1.9 | 1.8 | 1.6 | 744 | 2.7 | 0.66 | 1 | 0.76 | 2.7 | 0.91 | 5.9 | 1.6 | CN1CCN(C2CN(c3ccc4nc5n(c4c3)C34CCC(CN(CCOc6c(cnn6C)-c6cc(cn(C)c6=O)C(=O)N5)C3)C4)C2)CC1 (single isomer, unassigned) [Example A70B] | –
